Counter-ions that a name gives are not always drawn. Like-named read-outs stand apart in the source and are kept apart here. Bounds are passed on as bounds.

One data set concerns the target T1, Recombinant human AChE (Homo sapiens, UniProt P22303).
T1 construct: purchased Sigma-Aldrich C1682
Put plainly: Single-concentration screening, modified Ellman's assay (AChE). Conditions: 0.5 mM ATC. It counts as biochemical. On the procedure: (§1) Propranolol hydrochloride and diltiazem hydrochloride were obtained from Sigma-Aldrich (St. Louis, MO, United States). The stock solution was prepared at 10 mM in DMSO. Acetylthiocholine iodide (ATC), butyrylthiocholine iodide (BTC), and 5,5′-dithiobis-(2-nitrobenzoic acid) (DTNB) were also purchased from Sigma-Aldrich. Recombinant human AChE (Cat. No. C1682) and pooled human plasma (source of BChE) were used as enzyme sources. The pooled human plasma was prepared as described before ([Vijayaraghavan et al., 2013]). Briefly, pooled plasma samples were prepared by combining equal volumes from a large cohort of patients clinically diagnosed with mild-to-moderate AD. All samples were collected prior to the initiation of any cholinesterase inhibitor treatment. An equal volume of glycerol was then added to the pooled plasma, thoroughly mixed, and aliquoted into small tubes. These aliquots were stored at -20 °C until used in the assay. Each aliquot was used only once to avoid any interference due to freeze-thaw cycles. All other reagents were of analytical grade.
Cholinesterase activity was measured using a modified Ellman’s colorimetric method adapted for high-throughput screening ([Kumar et al., 2017]; [2020]; [Darreh-Shori et al., 2024]). Assays were conducted in 384-well microplates. Briefly, 20 µL of buffer was initially added to all wells. Subsequently, 20 µL of enzyme solution was added to designated wells, while 20 µL of buffer without enzyme was added to the negative control wells. […] The plate reader (Tecan Infinite M1000) was configured for a 384-well transparent plate in absorbance mode at 412 nm, with kinetic reading taken over 10 min at 1-min intervals. Following incubation, 20 µL of Master Mix Buffer (MMB) cocktail was added to each well using a multichannel pipette, and the plate reading was initiated inmediately. […] Upon completion of the reading, the data file was saved, enzyme activity rates were extracted, and the data were analyzed. Enzyme activity was calculated from the slope of the linear portion of the absorbance-time curve.

The next data set addresses T2, plasma-derived BChE (Homo sapiens, UniProt P06276).
T2 construct: pooled human plasma (source of BChE) were used as enzyme sources; from tissue; host or cells: pooled human plasma from patients with mild-to-moderate AD
The data set can be described thus: Single-concentration screening, modified Ellman's assay (BChE). The class given is biochemical. Conditions: read-out: BChE inhibition relative to vehicle control. As for the experimental part:
Propranolol hydrochloride and diltiazem hydrochloride were obtained from Sigma-Aldrich (St. Louis, MO, United States). The stock solution was prepared at 10 mM in DMSO. Acetylthiocholine iodide (ATC), butyrylthiocholine iodide (BTC), and 5,5′-dithiobis-(2-nitrobenzoic acid) (DTNB) were also purchased from Sigma-Aldrich. Recombinant human AChE (Cat. No. C1682) and pooled human plasma (source of BChE) were used as enzyme sources. The pooled human plasma was prepared as described before ([Vijayaraghavan et al., 2013]). Briefly, pooled plasma samples were prepared by combining equal volumes from a large cohort of patients clinically diagnosed with mild-to-moderate AD. […]
Cholinesterase activity was measured using a modified Ellman’s colorimetric method adapted for high-throughput screening ([Kumar et al., 2017]; [2020]; [Darreh-Shori et al., 2024]). […] The plate reader (Tecan Infinite M1000) was configured for a 384-well transparent plate in absorbance mode at 412 nm, with kinetic reading taken over 10 min at 1-min intervals. Following incubation, 20 µL of Master Mix Buffer (MMB) cocktail was added to each well using a multichannel pipette, and the plate reading was initiated inmediately. […] Upon completion of the reading, the data file was saved, enzyme activity rates were extracted, and the data were analyzed. […]

The target in another data set is T3, human BChE (Homo sapiens, UniProt P06276).
T3 construct: pooled human plasma (source of BChE) were used as enzyme sources; from tissue; host or cells: pooled human plasma from patients with mild-to-moderate AD
Put plainly: IC50 determination against BChE in pooled human plasma (Ellman). The class given is biochemical. As for the experimental part: as §1, with “The” for “Propranolol hydrochloride and diltiazem hydrochloride were obtained from Sigma-Aldrich (St. Louis, MO, United States). The”
(§2) Substrate concentrations were varied in a two-fold serial dilution: BTC (5 mM–[…]) for BChE and ATC (0.5 mM–[…]) for AChE. Each well received 20 µL of compound or vehicle, 20 µL of substrate, 20 µL of enzyme/DTNB master mix (for all of them 4x working solution in order to reach final concentration), and 20 µL of buffer. Absorbance at 412 nm was measured every 2 min for 15–20 min.

The target of the next data set is T4, human plasma BChE (Homo sapiens, UniProt P06276).
T4 construct: pooled human plasma (source of BChE) were used as enzyme sources; from tissue; host or cells: pooled human plasma from patients with mild-to-moderate AD
Put plainly: Ex vivo enzyme-inhibition kinetic analysis (Ki and inhibition mode). It counts as biochemical. Conditions: for Inhibition mode (BChE): best-fit nonlinear regression model. On the procedure: as §1, with “The” for “Propranolol hydrochloride and diltiazem hydrochloride were obtained from Sigma-Aldrich (St. Louis, MO, United States). The”
as §2
To further elucidate the mechanism of inhibition, inhibition constant (Kᵢ) values and inhibition modes were determined using nonlinear regression models in GraphPad Prism 10. Multiple models were tested, including competitive, noncompetitive, uncompetitive, and mixed inhibition. The optimal model for each compound was selected based on residual analysis and the Akaike Information Criterion (AIC), ensuring robust statistical support. In cases of mixed inhibition, the α parameter was used to characterize the relative affinity of the inhibitor for the enzyme-substrate complex versus the free enzyme.

The conditions of data set [1]: physiologically relevant concentration; ref Cruickshank and Neil-Dwyer, 1985; cited from earlier work.
Another data set relates to BChE. Conditions: at approximately 0.59 µM in plasma and 10 µM in brain tissue; ref Cruickshank and Neil-Dwyer, 1985; cited from earlier work.

T4 sequence (P06276 29-602): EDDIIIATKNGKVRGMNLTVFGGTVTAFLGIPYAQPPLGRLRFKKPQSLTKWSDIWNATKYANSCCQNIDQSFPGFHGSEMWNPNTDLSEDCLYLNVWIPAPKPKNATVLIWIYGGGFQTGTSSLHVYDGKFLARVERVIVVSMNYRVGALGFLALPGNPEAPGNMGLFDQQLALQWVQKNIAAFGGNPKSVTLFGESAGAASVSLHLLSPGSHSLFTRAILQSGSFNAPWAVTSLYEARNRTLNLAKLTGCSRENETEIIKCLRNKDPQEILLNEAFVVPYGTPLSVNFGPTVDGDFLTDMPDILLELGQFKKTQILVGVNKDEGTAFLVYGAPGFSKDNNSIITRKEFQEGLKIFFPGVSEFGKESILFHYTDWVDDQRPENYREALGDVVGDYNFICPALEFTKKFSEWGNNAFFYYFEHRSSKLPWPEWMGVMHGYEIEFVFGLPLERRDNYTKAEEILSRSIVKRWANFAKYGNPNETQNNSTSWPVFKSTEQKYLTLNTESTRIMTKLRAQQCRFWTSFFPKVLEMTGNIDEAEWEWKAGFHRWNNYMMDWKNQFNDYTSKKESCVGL
T3 sequence (P06276 29-602): as above
T1 sequence (P22303 32-614): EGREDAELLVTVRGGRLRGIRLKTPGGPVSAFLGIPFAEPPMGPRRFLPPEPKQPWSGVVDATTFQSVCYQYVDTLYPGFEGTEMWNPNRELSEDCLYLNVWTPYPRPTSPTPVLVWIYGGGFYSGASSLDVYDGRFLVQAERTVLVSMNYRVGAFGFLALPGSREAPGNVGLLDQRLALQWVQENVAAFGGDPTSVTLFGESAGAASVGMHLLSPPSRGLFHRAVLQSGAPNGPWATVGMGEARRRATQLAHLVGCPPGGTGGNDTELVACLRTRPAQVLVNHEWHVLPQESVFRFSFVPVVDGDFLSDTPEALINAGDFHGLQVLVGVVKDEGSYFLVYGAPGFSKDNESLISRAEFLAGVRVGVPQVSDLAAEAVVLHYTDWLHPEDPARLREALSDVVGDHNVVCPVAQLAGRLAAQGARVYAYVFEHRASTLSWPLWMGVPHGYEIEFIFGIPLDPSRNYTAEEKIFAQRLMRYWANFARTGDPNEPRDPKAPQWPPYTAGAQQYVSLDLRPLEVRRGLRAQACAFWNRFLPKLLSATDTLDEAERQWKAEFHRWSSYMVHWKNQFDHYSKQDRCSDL
T2 sequence (P06276 29-602): as the sequence (P06276 29-602) above

For the compound `COc1ccc([C@@H]2Sc3ccccc3N(CCN(C)C)C(=O)[C@@H]2OC(C)=O)cc1` [Diltiazem, diltiazem hydrochloride], the inhibition at 100 µM at Recombinant human AChE (single concentration 100 µM, read-out: AChE inhibition relative to vehicle control) was 2%; at plasma-derived BChE (single concentration 100 µM, 5 mM BTC), > 80%. Also, at human BChE, 153 µM corresponded to half-maximal inhibition (IC50). The same compound had a Ki on human plasma BChE of 2.3 µM. Also, the “Inhibition mode (BChE)” value at human plasma BChE is listed as “competitive inhibitor”; on human plasma BChE (listed as diltiazem) it was “competitive inhibition”.
In the case of `CCN(CC)C(C)CN1c2ccccc2Sc2ccccc21` (stereo not shown) [Ethopropazine], on Recombinant human AChE (single concentration 100 µM), the “AChE inhibition relative to vehicle control” value was “no inhibition”. The compound further showed an IC50 against human BChE of 2.81 µM. For the same compound, the “Inhibition mode (BChE)” value on human plasma BChE was “Mixed-competitive”; on human plasma BChE (listed as ethopropazine), “mixed competitor”.
Turning to `CNC(=O)Oc1ccc2c(c1)[C@]1(C)CCN(C)[C@@H]1N2C` [Physostigmine], the figures for the “Inhibition mode (BChE)” value at human plasma BChE and at human plasma BChE (listed as physostigmine) were “Competitive” and “competitive inhibition”, respectively.
For `CC(C)NCC(O)COc1cccc2ccccc12` (stereo not shown) [Propranolol, Propranolol hydrochloride], the inhibition at 100 µM on Recombinant human AChE (read-out: AChE inhibition relative to vehicle control, single concentration 100 µM) came to 18%. Also, the inhibition at 100 µM on plasma-derived BChE was > 80%. Besides, the IC50 at human BChE (5 mM BTC as substrate, plasma BChE, read-out: IC50 (BChE)) turned out to be 55.6 µM. For the same compound, on human plasma BChE, the Ki was 0.19 µM and the “Inhibition mode (BChE)” value was “competitive inhibitor”. Moreover, the “Inhibition mode (BChE)” value at human plasma BChE (listed as propranolol) is recorded as “competitive inhibition”. In addition, the “Concentration that reduced BChE activity to half of its baseline level” value at human plasma BChE (substrate concentration range of 0.08 mM–0.62 mM) worked out at 0.19 µM. For the same compound, in data set [1], the Concentration in plasma result is on record as “approximately 0.59 µM” and the “Concentration in the brain tissue” value was ~10 µM. In the data set on BChE, the “Reduction of BChE activity” value is reported as “approximately 50%”.
